# Source: patent publication US11261189B2, “Substituted 2,4 diamino-quinoline as new medicament for fibrosis, autophagy and cathepsins B (CTSB), L (CTSL) and D (CTSD) related diseases” (Genoscience Pharma, priority 2018, dated 2022)
# How the values were obtained:
# [1] = system: autophagy flux (LC3-II) in RBE cell line; experiment: Autophagy flux, LC3-II immunoblot with/without Bafilomycin, RBE cell line; format: cell-based; conditions: 24 hours of treatment
# Description: The capacity of compound 2-2 to modulate the cellular autophagy processes was also evaluated in the intrahepatic cholangiocarcinoma cell line RBE.
# The RBE cell line was maintained in RPMI (Roswell Park Memorial Institute) 1640 (Cat #L0498-500, Dutscher) containing 1% penicillin-streptomycin (Cat #P06-07100, Dutscher) and 10% FBS (Cat #SV30160.03C, Dutscher). RBE Cells line were cultured at 37° C. with 5% CO2.
# The day before the experiment, 6-well plates with 125,000 cells in 1.8 mL of medium per well were prepared.
# Compound 2-2 was dissolved with filtrated DMSO to make a 10 mM stock solution and serial working solutions (10× solutions) at 9 μM, 18 μM and 36 μM were prepared with the diluent (=culture medium with 0.12% DMSO) to maintain a constant percentage of DMSO. Bafilomycin [CAS 88899-55-2] (Cat #B1793-10UG, Sigma) was dissolved with DMSO to make a 160.6 μM stock solution and a working solution (200× solution) was prepared with the culture medium at 20.1 μM. A “Baf diluent” solution corresponding to the dilution of DMSO in the Bafilomycin 200× solution (culture medium with 12.5% DMSO) is also prepared. […]
# After 24 hours of cell line treatment, the medium was removed from each well. […] Total protein concentration was assessed using the BCA reagent (Cat #23227, ThermoFischer) and cellular lysates were stored at −80° C. until western-blot analysis. […]
# [2] = system: diethyl nitrosamine (DEN) cirrhotic rat model of liver fibrosis; experiment: DEN induced cirrhosis in rats, study 2: Sirius red quantification of liver fibrosis; format: in vivo
# Description: A second in vivo experiment, with the same diethyl nitrosamine (DEN) cirrhotic rat animal model of liver fibrosis, was performed including compound 2-2 (base form of compound 2-3) with discontinued oral dosing schedule and compound 5-3 with daily oral exposure. Compounds 2-2 and 5-3 were administered p.o. by gavage (oral gavage) once daily during 7 weeks.
# Rats were treated with DEN for 13 weeks (intra-peritoneal injections (i.p.) of 50 mg/kg/week) and then treated according to the Table 10 dosage schedule during 7 weeks. At the end of the study, all animals were sacrificed using CO2 and rat livers were collected for analysis. The quantification of the liver fibrotic tissue was evaluated by Sirius red staining of rat liver sections.
# Group 1 contained 6 animals which were daily dosed (q.d.) by oral gavage (per os, p.o.) with the vehicle during 7 weeks.
# Group 2 contained 8 animals and the corresponding animals were daily dosed (q.d.) by oral gavage (per os, p.o.) with compound 2-2 during 4 weeks at 20 mg/kg/day and then during 3 weeks at 20 mg/kg every 2 days (q.o.d.: quaque altera die, one day treated, on day untreated).
# Group 3 contained 8 animals and the corresponding animals were daily dosed (q.d.) by oral gavage (per os, p.o.) with compound 2-2 during 3 weeks at 20 mg/kg/day, then 2 weeks of treatment free period, and were then daily dosed (q.d.) by oral gavage (per os, p.o.) with compound 2-2 during 2 weeks at 20 mg/kg/day.
# Group 4 contained 8 animals and the corresponding animals were daily dosed (q.d.) by oral gavage (per os, p.o.) with compound 5-3 during 4 weeks at 20 mg/kg/day, and were then daily dosed (q.d.) by oral gavage (per os, p.o.) with compound 5-3 during 3 weeks at 15 mg/kg/day.
# Compound 2-2 and 5-3 were formulated in water for injection acidified with hydrochloric acid to pH 4.
smiles,measurement,setting,value
"CC(C)(C)NC1CCN(c2cc(NCc3ccc(Cl)cc3)nc3ccccc23)CC1 [2-2, 2-(4-chlorobenzylamino)-4-(4-tert-butylaminopiperidin-1-yl)-quinoline]",accumulation of the LC3-II form,[1],significantly induced a dose-dependent accumulation of the LC3-II form
same,autophagic flux (LC3-II Baf+/Baf− ratio),[1],induced an inhibition of the autophagic flux
same,reduction of the level of collagen fibers deposition (Sirius red) compared to the control group,"[2]; group 2 (20 qd/qod): 20 mg/kg p.o. q.d. 4 weeks then q.o.d. 3 weeks, after 13 weeks DEN, p=0.04",23%
same,reduction of the level of collagen fibers deposition (Sirius red) compared to the control group,"[2]; group 3 (20 3WON/2WOFF/2WON): 20 mg/kg p.o. q.d. 3 weeks, 2 weeks off, q.d. 2 weeks, p=0.01",29%
